Experimental data taken from US10118916B2, “Modulators of cystic fibrosis transmembrane conductance regulator protein” (AbbVie S.à.r.l., priority 2016, dated 2018).

Molecular target: T1, F508delCFTR (Homo sapiens, UniProt P13569, DEL508-508)
T1 construct: expressed in transfected cells; host or cells: CFBE41o- (human lung derived epithelial cell line), doxycycline-inducible
Assay: Cell Surface Expression-Horse Radish Peroxidase (CSE-HRP) assay
Type: cell-based
Conditions: CFBE41o-F508delCFTR-HRP cells; for EC50: F508delCFTR cell surface expression, luminescence, 18-24 hours at 33° C., highest concentration 20 μM; for Maximum % activity: maximum at any tested concentration, normalized to on-plate positive control (3 μM)
Outline: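 CFBE41o- cells expressing doxycycline-induced (0.5 μg/mL, 72 h at 37 °C) F508delCFTR with HRP in the fourth extracellular loop; compounds 8 points, 3-fold from 20 μM, 18-24 h at 33 °C. Surface HRP measured by luminol luminescence, normalised to DMSO and 3 μM reference corrector; EC50 from variable-slope sigmoidal fit of triplicate plates.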

T1 sequence (P13569 with tags, fused parts or gaps DEL508-508): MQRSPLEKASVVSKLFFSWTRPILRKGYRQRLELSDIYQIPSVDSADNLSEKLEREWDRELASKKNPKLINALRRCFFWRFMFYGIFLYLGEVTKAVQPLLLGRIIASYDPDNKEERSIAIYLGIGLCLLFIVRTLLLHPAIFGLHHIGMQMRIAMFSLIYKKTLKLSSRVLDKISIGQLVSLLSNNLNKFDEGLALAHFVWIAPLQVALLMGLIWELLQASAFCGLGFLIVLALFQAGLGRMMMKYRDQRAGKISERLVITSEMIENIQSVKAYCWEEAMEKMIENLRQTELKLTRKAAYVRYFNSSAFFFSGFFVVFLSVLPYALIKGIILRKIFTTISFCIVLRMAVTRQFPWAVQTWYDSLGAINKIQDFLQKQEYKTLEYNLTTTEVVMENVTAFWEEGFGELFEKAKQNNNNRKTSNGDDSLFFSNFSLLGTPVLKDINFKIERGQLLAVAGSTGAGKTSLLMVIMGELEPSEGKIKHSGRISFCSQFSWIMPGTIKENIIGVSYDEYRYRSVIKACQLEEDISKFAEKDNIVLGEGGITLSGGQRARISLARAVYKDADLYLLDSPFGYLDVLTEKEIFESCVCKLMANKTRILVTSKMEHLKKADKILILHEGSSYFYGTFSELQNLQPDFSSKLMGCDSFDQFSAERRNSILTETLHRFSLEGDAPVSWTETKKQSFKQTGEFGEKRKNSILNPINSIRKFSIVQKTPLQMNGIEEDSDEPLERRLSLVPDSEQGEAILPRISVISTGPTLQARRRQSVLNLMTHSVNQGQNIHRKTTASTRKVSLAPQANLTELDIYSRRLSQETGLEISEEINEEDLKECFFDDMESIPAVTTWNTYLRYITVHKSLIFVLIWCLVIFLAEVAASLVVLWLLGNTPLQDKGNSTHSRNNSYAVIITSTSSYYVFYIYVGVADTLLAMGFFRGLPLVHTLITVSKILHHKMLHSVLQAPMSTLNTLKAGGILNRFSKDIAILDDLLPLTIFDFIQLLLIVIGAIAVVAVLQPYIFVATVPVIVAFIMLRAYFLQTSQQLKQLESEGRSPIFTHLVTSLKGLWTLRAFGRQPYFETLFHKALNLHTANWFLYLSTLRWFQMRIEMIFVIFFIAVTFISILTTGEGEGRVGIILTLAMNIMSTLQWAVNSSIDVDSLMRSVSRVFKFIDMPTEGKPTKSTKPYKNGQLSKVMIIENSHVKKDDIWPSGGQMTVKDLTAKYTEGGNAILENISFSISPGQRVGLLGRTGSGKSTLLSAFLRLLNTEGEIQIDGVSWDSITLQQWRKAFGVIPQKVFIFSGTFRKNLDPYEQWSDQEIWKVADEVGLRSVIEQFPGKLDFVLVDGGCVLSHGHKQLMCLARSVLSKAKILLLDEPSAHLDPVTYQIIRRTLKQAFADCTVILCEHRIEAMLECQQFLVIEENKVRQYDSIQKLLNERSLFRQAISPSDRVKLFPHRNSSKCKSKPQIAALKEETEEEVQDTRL

| Structure (SMILES) | EC50 [nM] | Maximum % activity [%] |
| --- | --- | --- |
| COC(=O)c1cccc([C@H]2C[C@@H](NC(=O)[C@]3(C)CCc4cc(Cl)ccc4O3)c3ccccc3O2)c1 [Example 63, methyl 3-[(2R,4R)-4-{[(2S)-6-chloro-2-methyl-3,4-dihydro-2H-1-benzopyran-2-carbonyl]amino}-3,4-dihydro-2H-1-benzopyran-2-yl]benzoate] | > 20000 | 5.1 |
| C[C@@]1(C(=O)N[C@@H]2C[C@H](c3cccc(C(=O)O)c3)Oc3ccccc32)CCc2cc(Cl)ccc2O1 [Example 64, 3-[(2R,4R)-4-{[(2S)-6-chloro-2-methyl-3,4-dihydro-2H-1-benzopyran-2-carbonyl]amino}-3,4-dihydro-2H-1-benzopyran-2-yl]benzoic acid] | > 20000 | 18.0 |
| C[C@]1(C(=O)N[C@@H]2C[C@H](c3cccc(C(=O)O)c3)Oc3ccccc32)CCc2cc(Cl)ccc2O1 [Example 66, 3-[(2R,4R)-4-{[(2R)-6-chloro-2-methyl-3,4-dihydro-2H-1-benzopyran-2-carbonyl]amino}-3,4-dihydro-2H-1-benzopyran-2-yl]benzoic acid] | > 20000 | 4.8 |
| COc1ccc2c(c1)O[C@@H](c1ccc(C(=O)O)cc1)C[C@H]2NC(=O)[C@@]1(C)CCc2cc(Cl)ccc2O1 [Example 67, 4-[(2R,4R)-4-{[(2R)-6-chloro-2-methyl-3,4-dihydro-2H-1-benzopyran-2-carbonyl]amino}-7-methoxy-3,4-dihydro-2H-1-benzopyran-2-yl]benzoic acid] | > 20000 | 4.7 |
| COc1ccc2c(c1)O[C@@H](c1ccc(C(=O)O)cc1)C[C@H]2NC(=O)C1(C)CCc2cc(OC(F)(F)F)ccc21 (stereo partly drawn) [Example 68, 4-[(2R,4R)-7-methoxy-4-{[1-methyl-5-(trifluoromethoxy)-2,3-dihydro-1H-indene-1-carbonyl]amino}-3,4-dihydro-2H-1-benzopyran-2-yl]benzoic acid] | 1310 | 85.0 |
| COc1ccc2c(c1)CC[C@]2(C)C(=O)N[C@@H]1C[C@H](c2ccc(C(=O)O)cc2)Oc2cc(OC)ccc21 [Example 69, 4-[(2R,4R)-7-methoxy-4-{[(1S)-5-methoxy-1-methyl-2,3-dihydro-1H-indene-1-carbonyl]amino}-3,4-dihydro-2H-1-benzopyran-2-yl]benzoic acid] | 100 | 66.1 |
| COc1ccc2c(c1)O[C@@H](c1ccc(C(=O)O)cc1)C[C@H]2NC(=O)C1(c2ccc(OC(F)(F)F)cc2)CCC1 [Example 70, 4-[(2R,4R)-7-methoxy-4-({1-[4-(trifluoromethoxy)phenyl]cyclobutane-1-carbonyl}amino)-3,4-dihydro-2H-1-benzopyran-2-yl]benzoic acid] | 2210 | 28.0 |
| COc1ccc2c(c1)O[C@@H](c1ccc(C(=O)O)cc1)C[C@H]2NC(=O)C(C)(C)c1ccc2c(c1)CCO2 [Example 71, 4-{(2R,4R)-4-[2-(2,3-dihydro-1-benzofuran-5-yl)-2-methylpropanamido]-7-methoxy-3,4-dihydro-2H-1-benzopyran-2-yl}benzoic acid] | 120 | 52.0 |
| COc1ccc2c(c1)O[C@@H](c1ccc(C(=O)O)cc1)C[C@H]2NC(=O)C(C)(C)Oc1cccc(Cl)c1 [Example 73, 4-{(2R,4R)-4-[2-(3-chlorophenoxy)-2-methylpropanamido]-7-methoxy-3,4-dihydro-2H-1-benzopyran-2-yl}benzoic acid] | 1840 | 29.0 |
| COc1ccc2c(c1)O[C@@H](c1ccc(C(=O)O)cc1)C[C@H]2NC(=O)C(C)(C)Oc1ccc(Cl)c(C)c1 [Example 77, 4-{(2R,4R)-4-[2-(4-chloro-3-methylphenoxy)-2-methylpropanamido]-7-methoxy-3,4-dihydro-2H-1-benzopyran-2-yl}benzoic acid] | > 20000 | 8.0 |
| COc1ccc2c(c1)O[C@@H](c1ccc(C(=O)O)cc1)C[C@H]2NC(=O)C(C)(C)Oc1cccc(C(F)(F)F)c1 [Example 78, 4-[(2R,4R)-7-methoxy-4-{2-methyl-2-[3-(trifluoromethyl)phenoxy]propanamido}-3,4-dihydro-2H-1-benzopyran-2-yl]benzoic acid] | 2470 | 32.0 |
| COc1ccc2c(c1)O[C@@H](c1ccc(C(=O)O)cc1)C[C@H]2NC(=O)C1(c2cccc(OC(F)(F)F)c2)CCC1 [Example 83, 4-[(2R,4R)-7-methoxy-4-({1-[3-(trifluoromethoxy)phenyl]cyclobutane-1-carbonyl}amino)-3,4-dihydro-2H-1-benzopyran-2-yl]benzoic acid] | 3170 | 51.0 |
| COc1ccc2c(c1)O[C@@H](c1ccc(C(=O)O)cc1)C[C@H]2NC(=O)C1(c2ccc(C)c(OC)c2)CC1 [Example 86, 4-[(2R,4R)-7-methoxy-4-{[1-(3-methoxy-4-methylphenyl)cyclopropane-1-carbonyl]amino}-3,4-dihydro-2H-1-benzopyran-2-yl]benzoic acid] | 570 | 57.9 |

The next lines start with the values.

| EC50 [nM] | Maximum % activity [%] | Structure (SMILES) |
| --- | --- | --- |
| > 20000 | 1.4 | COc1ccc2c(c1)O[C@@H](c1ccc(C(=O)O)cc1)C[C@H]2NC(=O)C1(c2ccccc2)CC(F)(F)C1 [Example 72, 4-{(2R,4R)-4-[(3,3-difluoro-1-phenylcyclobutane-1-carbonyl)amino]-7-methoxy-3,4-dihydro-2H-1-benzopyran-2-yl}benzoic acid] |
| 70 | 49.8 | COc1ccc(C2(C(=O)N[C@@H]3C[C@H](c4ccc(C(=O)O)cc4)Oc4cc(OC)ccc43)CC2)cc1 [Example 74, 4-[(2R,4R)-7-methoxy-4-{[1-(4-methoxyphenyl)cyclopropane-1-carbonyl]amino}-3,4-dihydro-2H-1-benzopyran-2-yl]benzoic acid] |
| 950 | 37.9 | COc1ccc2c(c1)O[C@@H](c1ccc(C(=O)O)cc1)C[C@H]2NC(=O)C1(c2ccccc2)CC1 [Example 75, 4-{(2R,4R)-7-methoxy-4-[(1-phenylcyclopropane-1-carbonyl)amino]-3,4-dihydro-2H-1-benzopyran-2-yl}benzoic acid] |
| 2100 | 52.0 | COc1ccc2c(c1)O[C@@H](c1ccc(C(=O)O)cc1)C[C@H]2NC(=O)C1(c2ccc(Cl)cc2)CCC1 [Example 76, 4-[(2R,4R)-4-{[1-(4-chlorophenyl)cyclobutane-1-carbonyl]amino}-7-methoxy-3,4-dihydro-2H-1-benzopyran-2-yl]benzoic acid] |
| > 20000 | −0.2 | COc1ccc2c(c1)O[C@@H](c1ccc(C(=O)O)cc1)C[C@H]2NC(=O)C1(c2ccccc2)CCC(F)(F)C1 (stereo partly drawn) [Example 80, 4-{(2R,4R)-4-[(3,3-difluoro-1-phenylcyclopentane-1-carbonyl)amino]-7-methoxy-3,4-dihydro-2H-1-benzopyran-2-yl}benzoic acid] |
| 1880 | 32.0 | COc1ccc2c(c1)O[C@@H](c1ccc(C(=O)O)cc1)C[C@H]2NC(=O)C1(c2ccc(F)c(F)c2)CCC1 [Example 81, 4-[(2R,4R)-4-{[1-(3,4-difluorophenyl)cyclobutane-1-carbonyl]amino}-7-methoxy-3,4-dihydro-2H-1-benzopyran-2-yl]benzoic acid] |
| 1880 | 23.3 | COc1ccc2c(c1)O[C@@H](c1ccc(C(=O)O)cc1)C[C@H]2NC(=O)C1(c2ccccc2C(F)(F)F)CCC1 [Example 82, 4-[(2R,4R)-7-methoxy-4-({1-[2-(trifluoromethyl)phenyl]cyclobutane-1-carbonyl}amino)-3,4-dihydro-2H-1-benzopyran-2-yl]benzoic acid] |
| 560 | 56.2 | COc1ccc2c(c1)O[C@@H](c1ccc(C(=O)O)cc1)C[C@H]2NC(=O)C1(c2ccc(F)cc2)CC1 [Example 84, 4-[(2R,4R)-4-{[1-(4-fluorophenyl)cyclopropane-1-carbonyl]amino}-7-methoxy-3,4-dihydro-2H-1-benzopyran-2-yl]benzoic acid] |
| 720 | 50.4 | COc1ccc2c(c1)O[C@@H](c1ccc(C(=O)O)cc1)C[C@H]2NC(=O)C1(c2cccc(F)c2)CC1 [Example 85, 4-[(2R,4R)-4-{[1-(3-fluorophenyl)cyclopropane-1-carbonyl]amino}-7-methoxy-3,4-dihydro-2H-1-benzopyran-2-yl]benzoic acid] |
| 1830 | 46.0 | COc1ccc2c(c1)O[C@@H](c1ccc(C(=O)O)cc1)C[C@H]2NC(=O)C1(c2cccc(C#N)c2)CC1 [Example 87, 4-[(2R,4R)-4-{[1-(3-cyanophenyl)cyclopropane-1-carbonyl]amino}-7-methoxy-3,4-dihydro-2H-1-benzopyran-2-yl]benzoic acid] |
| 640 | 44.0 | COc1ccc2c(c1)O[C@@H](c1ccc(C(=O)O)cc1)C[C@H]2NC(=O)C1(c2cccc(Br)c2)CC1 [Example 88, 4-[(2R,4R)-4-{[1-(3-bromophenyl)cyclopropane-1-carbonyl]amino}-7-methoxy-3,4-dihydro-2H-1-benzopyran-2-yl]benzoic acid] |
| 750 | 42.0 | COc1ccc2c(c1)O[C@@H](c1ccc(C(=O)O)cc1)C[C@H]2NC(=O)C1(c2ccccc2Br)CC1 [Example 89, 4-[(2R,4R)-4-{[1-(2-bromophenyl)cyclopropane-1-carbonyl]amino}-7-methoxy-3,4-dihydro-2H-1-benzopyran-2-yl]benzoic acid] |
